Earlier results on 1 compound are cited in patent US20110182952A1, “DRUG DELIVERY FROM EMBOLIC AGENTS” (BIOCOMPATIBLES UK LIMITED, priority 2004, published 2011).

The conditions of the data set: uterine artery embolization for leiomyomata.

Structures are written as SMILES.

`CCN(CC)CC(=O)Nc1c(C)cccc1C` [lidocaine]: the “arterial spasm on intraarterial use” value is given as “causes a large amount of spasm”.
